Data as given in paper PMC10067956, “Pyrazole derivatives of pyridine and naphthyridine as proapoptotic agents in cervical and breast cancer cells” (Scientific Reports, 2023).
Like-named read-outs stand apart in the source and are kept apart here.

How the values were obtained:
caspase-9 [1] = experiment: Activated caspase-9 in HeLa cells; format: cell-based; settings: versus control
Description: (§1) Results were represented as fold increase in activated caspase-9 and caspase-3/7 as compared to control as previously reported.

herring sperm DNA = experiment: DNA binding studies (UV absorption); settings: 200 µM compound; 0 to 396 µM DNA; hypochromicity, no red or blue shift
Protocol: A stock solution of 5 mg of DNA was prepared in 10 mL of distilled water and the purity of the DNA (A260/A280) was in the range of 1.6 to 1.9. Compound 5j was tested at a final concentration of 200 µM with varying end concentrations (0 to 396 µM) of DNA. The plate was placed at room temperature for 30 min and the UV absorption spectrum was recorded by microplate reader (FLUOstar Omega BMG Labtech, Ortenberg, Germany).

HeLa cells [2] = experiment: Fluorescence microscopy of apoptosis (PI, DAPI), HeLa; format: cell-based; settings: IC50 and 2 × IC50, 24 h
Protocol: (§2) Morphological changes in compound treated cancer cells were identified using propidium iodide (PI) and 4′,6-diamidino-2-phenylindole (DAPI) staining with observing under a fluorescence microscope (Nikon ECLIPSE Ni–U, Japan). […] After 24 h, media was aspirated, cells were washed with sterile phosphate buffered saline (PBS) and fixed by using 4% formalin and 0.1% Triton X–100 as adherent cells fixation solution. Further, 10 µL (0.01 mg/mL) of PI or DAPI solution was added on slides and kept for 10 min in dark. Fluorescence photomicrographs were captured as previously reported.

HeLa cells [3] = experiment: Mitochondrial membrane potential (JC-1), HeLa; format: cell-based; settings: IC50 and 2 × IC50, 24 h
Protocol: (§3) Mitochondrial membrane potential was determined by a fluorimetric method using fluorescent dye 5′,5′,6′,6′-tetrachloro-1′,1′,3′,3′-[…] (JC-1). Briefly, 1 × 10^5 cells were grown and treated with IC50 and 2 × IC50 values of compounds 5j and 5k for 24 h. Cells were harvested, pelletized and treated with 0.25 µM of fluorescent dye JC-1. Each sample was transferred to a flat-bottomed black 96-well plate, which was kept in the dark for 20 min. Fluorescence emission was measured by a fluorescent microplate reader (FLUOstar Omega BMG Labtech, Germany) at 590 nm and 520 nm for j-aggregates and j-monomers. Results were measured as ratio of red/green fluorescence as previously reported.

HeLa cells [4] = experiment: MTT cell viability assay, HeLa; format: cell-based; settings: 24 h; for IC50: read-out: IC50 (µM) ± SEM, HeLa Cell Line; for inhibition at 100 µM: read-out: %Inhibition at 100 µM, HeLa cell line
Protocol: (§4) The anti-proliferative activity of the studied compounds was determined against breast (MCF-7) and cervical (HeLa) cancer cells by the MTT cell viability assay as described earlier[44],[45]. BHK-21 cells were used as non-cancerous cells to study the effect of these compounds on normal cells. Briefly, 1 × 10^4 cells/well were seeded in 96-well microtiter plate and placed in an incubator (Heracell™ VIOS 160i, Thermo-Fisher Scientific) set for 5% CO2 at 37 °C. The stock solutions of compounds were prepared at 10 mM concentration in DMSO. Initial working solutions were prepared in cell culture medium at 1 mM concentration. […] After 24 h, medium in each well was aspirated and cells were treated for 4 h with serum free medium containing 0.2 mg/mL MTT reagent. The solubilizing reagent (10% acidified sodium dodecyl sulfate in propanol in a 1:1 ratio) was added to solubilize formazan crystals. Plates were kept at 37 °C for 30 min and then placed on a gyratory shaker for few min for complete solubilization of formazan crystals. The optical density was measured at 570 nm by microplate reader and IC50 values were calculated from three independent experiments as previously reported.

caspase-3/7 = experiment: Activated caspase-3/7 in HeLa cells; format: cell-based; settings: versus control
Description: as §1

BHK-21 cells = experiment: MTT cell viability assay, non-cancerous BHK-21; format: cell-based, Baby Hamster; settings: Mesocricetus auratus, 24 h, read-out: IC50 (µM) ± SEM, BHK-21 cell line
Protocol: as §4

HeLa cells [5] = experiment: Oxidative stress (H2DCF-DA staining), HeLa; format: cell-based; settings: IC50 and 2 × IC50
Protocol: (§5) After washing with sterile PBS, cells were fixed and 10 µL (0.01 mg/mL) of H2DCF-DA dye was added on microscopic slides. After an incubation of 10 min at room temperature in the dark, fluorescence photomicrographs were obtained as previously reported.

HeLa cells [6] = experiment: Alkaline comet assay; format: cell-based
Protocol: Comet assay is a sensitive method to determine DNA damage which was performed after some modifications in a published protocol. […] The cervical cancer (HeLa) cells were treated with IC50 value of potent compound 5j for 24 h. Cells were harvested, collected and centrifuged to obtain a pellet. Pelleted cells were re-suspended in media. Untreated cells were used as control cells. For the positive control, 2 × 10^4 cells were treated with 20 µM of freshly prepared hydrogen peroxide for 30 min. Slides were prepared by coating with 1% normal melting point agarose (NMPA) on one side and then dried. Samples (2 × 10^4 cells/sample) were re-suspended in 1 mL of PBS. In a tube, 0.4 mL cell suspension was mixed with 1.2 mL of 0.9% low melting point agarose (LMPA) and mixed thoroughly by pipetting. A cell suspension of 65 µL was laid on coated slide and evenly distributed by placing a coverslip over it. Slides were placed at − 20 °C for 10 min. Then the slides were placed at 4 °C in the dark in a lysis buffer of 100 mM EDTA, 10 mM Trizma base, 2.5 M sodium chloride, 10% DMSO and 1% Triton X-100 in distilled water with a pH of 10. After an overnight incubation, slides were washed with chilled distilled water. These slides were then placed in electrophoresis chamber (Wealtec, USA) having chilled (4 °C) alkali unwinding solution (300 mM sodium hydroxide and 1 mM EDTA in distilled water). Electrophoresis was carried out at an adjusted voltage (between 0.7 and 1.0 V/cm) for 35 min in an electrophoresis tank. Slides were then immersed in neutralization solution (0.4 M Trizma base in 800 mL water, pH 7.5) for 10 min in dark. Propidium iodide (20 µL of 0.01 mg/mL) was used as fluorescent dye to stain DNA. Slides were placed in dark at room temperature. After 10 min, images were captured using a fluorescence microscope (Nikon ECLIPSE Ni–U, Japan) at an excitation/emission wavelength of 493/632 nm. Microscopic images were analyzed using ImageJ (ij152-win-java8, National Institutes of Health, Bethesda, USA) and OpenComet (OpenComet_imagej_v1.3.1, USA) where the DNA content in the head and tail of the comets were automatically measured by the software. Results of three independent experiments were expressed as tail length ([…]), %DNA in comet tail and comet tail moment.

HeLa cells [7] = experiment: Cell cycle analysis by flow cytometry; format: cell-based; settings: IC50 and 2 × IC50, PI staining
Protocol: Briefly, HeLa cells (2 × 10^5 cells/mL) were grown and treated with IC50 and 2 × IC50 values of potent compound 5j. Cells were harvested and washed three times with PBS to remove traces of cell culture medium. Cells were fixed in 70% ethanol for 24 h at − 20 °C. Pelletized cells were then re-suspended in 1 mL of a solution containing PI (20 µg/mL), RNase A (50 µg/mL) and 0.1% (v/v) Triton X-100. Samples were kept in the dark for 30 min at room temperature and analyzed within an hour as reported earlier.

MCF-7 cells [8] = experiment: MTT cell viability assay, MCF-7; format: cell-based; settings: Homo sapiens; for inhibition at 100 µM: MCF7, 100 µM, 24 h, read-out: %Inhibition at 100 µM, MCF-7 cell line
Protocol: as §4

HeLa cells [9] = experiment: LDH cytotoxicity assay, HeLa; format: cell-based; settings: IC50 and 2 × IC50
Protocol: (§6) Briefly, 1 × 10^4 cells/well were seeded in a flat bottom 96 well cell culture plate and kept for overnight incubation. Cells were treated with potent compounds 5j and 5k at the IC50 and 2 × IC50 values. The plate was centrifuged at 1500 rpm for 3 min and the supernatant (50 µL) transferred to a new sterile 96-well plate. After addition of substrate mix (50 µL), plate was placed at room temperature for 30 min. The absorbance was measured at 490 nm and 680 nm using microplate reader (FLUOstar Omega, Ortenberg, Germany). Cytotoxicity was measured as described earlier.

MCF-7 cells [10] = experiment: LDH cytotoxicity assay, MCF-7; format: cell-based; settings: IC50 and 2 × IC50
Protocol: as §6

MCF-7 cells [11] = experiment: Oxidative stress (H2DCF-DA staining), MCF-7; format: cell-based; settings: IC50 and 2 × IC50
Protocol: as §5

caspase-9 [12] = experiment: Activated caspase-9 in MCF-7 cells; format: cell-based; settings: versus control
Description: as §1

MCF-7 cells [13] = experiment: Mitochondrial membrane potential (JC-1), MCF-7; format: cell-based; settings: IC50 and 2 × IC50, 24 h
Protocol: as §3

caspase-7 = experiment: Activated caspase-7 in MCF-7 cells; format: cell-based; settings: versus control
Description: as §1

MCF-7 cells [14] = experiment: Fluorescence microscopy of apoptosis (PI, DAPI), MCF-7; format: cell-based; settings: IC50 and 2 × IC50, 24 h
Protocol: as §2

[15] = 5j 6.4 µM 24 h, H2O2 20 µM 30 min (positive control)

## Cc1[nH]nc2nc(N)c3c(N)nc4ccc(F)cc4c3c12 [5j]
caspase-9 [1]; at 2 × IC50, 18 h
  fold increase in activated caspase-9: 2.2 folds
caspase-9 [1]; at IC50, 18 h
  fold increase in activated caspase-9: 1.4 folds
Herring sperm DNA
  mode of interaction with DNA (absorption spectra): non-covalently bound to DNA
HeLa cells [2]
  morphological features of apoptosis, PI and DAPI staining: Cell detachment, shrinkage of cells and condensation of nuclear material was observed
HeLa cells [3]
  mitochondrial membrane potential, ratio of red/green fluorescence (JC-1): decrease in red/green ratio
HeLa cells [4]
  IC50: 6.43 ± 0.45 µM
HeLa cells [4]; Homo sapiens
  inhibition at 100 µM: 94.8%
  IC50: 6.4 ± 0.45 µM
caspase-3/7; at 2 × IC50, 18 h
  fold increase in activated caspase-3/7: 4.8 folds
caspase-3/7; at IC50, 18 h
  fold increase in activated caspase-3/7: about 4 folds
BHK-21 cells
  IC50: 27.5 ± 1.32 µM
HeLa cells [5]
  ROS production, H2DCF-DA staining: ROS generation
HeLa cells [6]; 6.4 µM
  DNA damage in comet assay: DNA damage in treated cells, comparable to positive control
HeLa cells [6]; 5j 6.4 µM 24 h
  %DNA in tail ± SD: 41.02 ± 7.61%
HeLa cells [6]; [15]
  Tail length ± SD: 43 ± 10.3 µm
  Tail moment ± SD: 23.22 ± 1.61
HeLa cells [7]
  cell cycle arrest: G0/G1 arrest
MCF-7 cells [8]
  inhibition at 100 µM: 47.8%
HeLa cells [9]
  leaked LDH (cytotoxic effect): dose dependent increase in leaked LDH

## Cc1[nH]nc2nc(N)c3c(N)nc4ccc(Cl)cc4c3c12 [5k]
MCF-7 cells [10]
  leaked LDH (cytotoxic effect): dose dependent increase in leaked LDH
MCF-7 cells [11]
  ROS production, H2DCF-DA staining: ROS generation
HeLa cells [4]; Homo sapiens
  inhibition at 100 µM: 96.4%
  IC50: 7.25 ± 0.12 µM
caspase-9 [12]; at 2 × IC50, 18 h
  fold increase in activated caspase-9: 1.4 folds
caspase-9 [12]; at IC50, 18 h
  fold increase in activated caspase-9: 1.1 folds
MCF-7 cells [13]
  mitochondrial membrane potential, ratio of red/green fluorescence (JC-1): decrease in red/green ratio
BHK-21 cells
  IC50: 8.21 ± 0.57 µM
caspase-7; at 2 × IC50, 18 h
  fold increase in activated caspase-7: 1.8 fold
caspase-7; at IC50, 18 h
  fold increase in activated caspase-7: 1.4 fold
MCF-7 cells [14]
  morphological features of apoptosis, PI and DAPI staining: Cell detachment, shrinkage of cells and condensation of nuclear material was observed
MCF-7 cells [8]
  inhibition at 100 µM: 69.5%
MCF-7 cells [8]; MCF7, 24 h, read-out: IC50 (µM) ± SEM, MCF-7 cell line
  IC50: 2.03 ± 0.23 µM
